We go through 1 molecule from ChEMBL document CHEMBL1157341, “An antimalarial tetrapeptide from the entomopathogenic fungus Hirsutella sp. BCC 1528” (J Nat Prod, 2006).

The subject of one data set is Plasmodium falciparum. Description: Antimalarial activity against Plasmodium falciparum K1 infected human A+ erythrocytes by [3H]hypoxanthine uptake. Type of data set: functional, organism-based.
The next data set relates to Vero. Description: Cytotoxicity against african green monkey Vero cells by SRB assay. The class given is cell-based. The settings on record: chlorocebus sabaeus. (In general: Sulforhodamine B stains cellular protein and so reports cell mass.)
For another data set, the system named is KB. Kind of data set: Cytotoxicity against human KB cells up to 38 uM by SRB assay. Type of data set: functional, cell-based.
The test system of the next data set is BC. Kind of data set: Cytotoxicity against human BC cells up to 38 uM by SRB assay. The class given is functional, cell-based.
The next data set deals with NCI-H187. Kind of data set: Cytotoxicity against human NCI-H187 cells up to 38 uM by SRB assay. Type of data set: functional, cell-based.

pIC50: −log10 of the molar value. The source made the active and inactive calls. No cut-off for these calls is given here.

For the molecule `CC[C@@H](C)[C@H](N)C(=O)N(C)[C@H](Cc1ccccc1)C(=O)N[C@@H](CC(C)C)C(=O)Nc1ccccc1C(=O)O` [HIRSUTELLIC ACID A], the pIC50 – broadly, the negative decadic logarithm of the IC50, by convention in mol/L – in the data set on Plasmodium falciparum was 5.10. For the same molecule, the Activity entry with Vero is “Non-toxic”. Also, the result in the data set with KB, in the data set with BC and with NCI-H187 was inactive.
